Assay results: ChEMBL document CHEMBL2163261, “Anti-HIV-1 activity of resveratrol derivatives and synergistic inhibition of HIV-1 by the combination of resveratrol and decitabine” (Bioorg Med Chem Lett, 2012)

System: Human immunodeficiency virus 1
Assay: Antiviral activity against HIV1 infected in human U373-MAGI cells expressing CXCR4 assessed as inhibition of viral infection preincubated for 2 hrs prior to infection followed by compound wash out measured after 48 hrs by single round replication assay
Type: functional, organism-based
Details: not given

**Q.** For Oc1ccc(-c2c(-c3cc(O)cc(O)c3)sc3ccccc23)cc1, which Activity is on record?
**A.** Dose-dependent effect

**Q.** With Oc1ccc(-c2oc3ccccc3c2-c2cc(O)cc(O)c2)cc1 as the compound, how does the Activity read?
**A.** Dose-dependent effect

**Q.** Which Activity does the source give for Oc1ccc(/C=C/c2cc(O)cc(O)c2)cc1 [RESVERATROL] here?
**A.** Dose-dependent effect

**Q.** For Oc1cc(O)cc(/C=C/c2ccc(O)c(O)c2)c1 [PICEATANNOL], which Activity is on record?
**A.** Dose-dependent effect

**Q.** Which Activity does the source give for Oc1ccc(-c2c(-c3cc(O)cc(O)c3)oc3ccccc23)cc1 here?
**A.** Dose-dependent effect

**Q.** With Oc1ccc(-c2sc3ccccc3c2-c2cc(O)cc(O)c2)cc1 as the compound, how does the Activity read?
**A.** Dose-dependent effect

**Q.** With Oc1ccc(-c2ccc(-c3cc(O)cc(O)c3)cc2)cc1 as the compound, how does the Activity read?
**A.** Dose-dependent effect

Same assay, conditions: Human immunodeficiency virus 1, U373-MAGI

**Q.** Which EC50 does the source give for Oc1cc(O)cc(-c2ccc(-c3ccncc3)cc2)c1 here?
**A.** > 100 µM

**Q.** Which EC50 does the source give for Oc1ccc(-c2c(-c3cc(O)cc(O)c3)sc3ccccc23)cc1 here?
**A.** 34.4 µM

**Q.** Which EC50 does the source give for Oc1ccc(-c2oc3ccccc3c2-c2cc(O)cc(O)c2)cc1 here?
**A.** 65.1 µM

**Q.** With Oc1ccc(/C=C/c2cc(O)cc(O)c2)cc1 [RESVERATROL] as the compound, how does the EC50 read?
**A.** > 75 µM

**Q.** Which EC50 does the source give for Oc1cc(O)cc(/C=C/c2ccc(O)c(O)c2)c1 [PICEATANNOL] here?
**A.** 21.4 µM

**Q.** Which EC50 does the source give for Oc1ccc(-c2cc(-c3cc(O)cc(O)c3)on2)cc1 here?
**A.** > 75 µM

**Q.** With Oc1cc(O)cc(-c2ccc3cnccc3c2)c1 as the compound, how does the EC50 read?
**A.** > 75 µM

**Q.** For Oc1ccc(-c2c(-c3cc(O)cc(O)c3)oc3ccccc23)cc1, which EC50 is on record?
**A.** 35 µM

**Q.** Which EC50 does the source give for Oc1ccc(-n2cc(-c3cc(O)cc(O)c3)nn2)cc1 here?
**A.** > 75 µM

**Q.** With Oc1ccc(-c2ncc(-c3cc(O)cc(O)c3)cn2)cc1 as the compound, how does the EC50 read?
**A.** > 75 µM

**Q.** Which EC50 does the source give for Oc1ccc(-c2cnc(-c3cc(O)cc(O)c3)nc2)cc1 here?
**A.** > 75 µM

**Q.** Which EC50 does the source give for Oc1ccc(-c2sc3ccccc3c2-c2cc(O)cc(O)c2)cc1 here?
**A.** 45.1 µM

**Q.** For Oc1cc(O)cc(-c2ccc3cc(O)ccc3c2)c1, which EC50 is on record?
**A.** > 75 µM

**Q.** With O=C(/C=C/c1ccc(O)cc1)c1cc(O)cc(O)c1 as the compound, how does the EC50 read?
**A.** > 75 µM

**Q.** Which EC50 does the source give for Cn1c(-c2ccc(O)cc2)ccc1-c1cc(O)cc(O)c1 here?
**A.** > 75 µM

**Q.** Which EC50 does the source give for Oc1ccc(-c2ccc(-c3cc(O)cc(O)c3)cc2)cc1 here?
**A.** 8.8 µM

System: not listed separately
Assay: Cytotoxicity against human U373-MAGI cells expressing CXCR4
Type: cell-based
Details: read-out: TC50 (the source's name)

**Q.** For Oc1ccc(-c2c(-c3cc(O)cc(O)c3)sc3ccccc23)cc1, which CC50 is on record?
**A.** 131 µM

**Q.** For Oc1ccc(-c2oc3ccccc3c2-c2cc(O)cc(O)c2)cc1, which CC50 is on record?
**A.** 108 µM

**Q.** Which CC50 does the source give for Oc1ccc(/C=C/c2cc(O)cc(O)c2)cc1 [RESVERATROL] here?
**A.** > 300 µM

**Q.** For Oc1cc(O)cc(/C=C/c2ccc(O)c(O)c2)c1 [PICEATANNOL], which CC50 is on record?
**A.** > 400 µM

**Q.** For Oc1ccc(-c2c(-c3cc(O)cc(O)c3)oc3ccccc23)cc1, which CC50 is on record?
**A.** 84.8 µM

**Q.** With Oc1ccc(-c2sc3ccccc3c2-c2cc(O)cc(O)c2)cc1 as the compound, how does the CC50 read?
**A.** 118 µM

**Q.** Which CC50 does the source give for Oc1ccc(-c2ccc(-c3cc(O)cc(O)c3)cc2)cc1 here?
**A.** 179 µM

System: not listed separately
Assay: Selectivity index, ratio of TC50 for human U373-MAGI cells to EC50 for human U373-MAGI cells infected with HIV1
Type: toxicity, cell-based
Details: read-out: Selectivity Index

**Q.** With Oc1ccc(-c2c(-c3cc(O)cc(O)c3)sc3ccccc23)cc1 as the compound, how does the selectivity ratio read?
**A.** 3.8

**Q.** With Oc1ccc(-c2oc3ccccc3c2-c2cc(O)cc(O)c2)cc1 as the compound, how does the selectivity ratio read?
**A.** 1.5

**Q.** Which selectivity ratio does the source give for Oc1cc(O)cc(/C=C/c2ccc(O)c(O)c2)c1 [PICEATANNOL] here?
**A.** > 18.7

**Q.** For Oc1ccc(-c2c(-c3cc(O)cc(O)c3)oc3ccccc23)cc1, which selectivity ratio is on record?
**A.** 2.4

**Q.** For Oc1ccc(-c2sc3ccccc3c2-c2cc(O)cc(O)c2)cc1, which selectivity ratio is on record?
**A.** 2.6

**Q.** Which selectivity ratio does the source give for Oc1ccc(-c2ccc(-c3cc(O)cc(O)c3)cc2)cc1 here?
**A.** 20.3

System: Human immunodeficiency virus 1
Assay: Antiviral activity against HIV1 infected in human U373-MAGI cells expressing CXCR4 assessed as infected host cells at 70 nM preincubated for 2 hrs prior to infection followed by compound wash out measured after 48 hrs by single round replication assay
Type: functional
Details: not given

**Q.** Which Activity does the source give for Nc1ncn([C@H]2C[C@H](O)[C@@H](CO)O2)c(=O)n1 [DECITABINE] here?
**A.** 93%

System: Human immunodeficiency virus 1
Assay: Antiviral activity against HIV1 infected in human U373-MAGI cells expressing CXCR4 assessed as infected host cells at 20 uM preincubated for 2 hrs prior to infection followed by compound wash out post infection measured after 48 hrs by single round replication assay
Type: functional
Details: not given

**Q.** With Oc1ccc(/C=C/c2cc(O)cc(O)c2)cc1 [RESVERATROL] as the compound, how does the Activity read?
**A.** 91%

System: Human immunodeficiency virus 1
Assay: Antiviral activity against HIV1 infected in human U373-MAGI cells expressing CXCR4 assessed as infected host cells at 6 uM preincubated for 2 hrs prior to infection followed by compound wash out measured after 48 hrs by single round replication assay
Type: functional
Details: not given

**Q.** Which Activity does the source give for Oc1cc(O)cc(/C=C/c2ccc(O)c(O)c2)c1 [PICEATANNOL] here?
**A.** 88%

**Q.** Which Activity does the source give for Oc1ccc(-c2ccc(-c3cc(O)cc(O)c3)cc2)cc1 here?
**A.** 96%

System: Human immunodeficiency virus 1
Assay: Antiviral activity against HIV1 infected in human U373-MAGI cells expressing CXCR4 assessed as infected host cells at 30 uM preincubated for 2 hrs prior to infection followed by compound wash out measured after 48 hrs by single round replication assay
Type: functional
Details: not given

**Q.** Which Activity does the source give for Oc1ccc(-c2sc3ccccc3c2-c2cc(O)cc(O)c2)cc1 here?
**A.** 99%

System: Human immunodeficiency virus 1
Assay: Antiviral activity against HIV1 infected in human U373-MAGI cells expressing CXCR4 assessed as frequency of viral mutagenesis at 70 nM preincubated for 2 hrs prior to infection followed by compound wash out measured after 48 hrs by flow cytometry relative to control
Type: functional
Details: not given

**Q.** For Nc1ncn([C@H]2C[C@H](O)[C@@H](CO)O2)c(=O)n1 [DECITABINE], which Ratio is on record?
**A.** 1.26

System: Human immunodeficiency virus 1
Assay: Antiviral activity against HIV1 infected in human U373-MAGI cells expressing CXCR4 assessed as frequency of viral mutagenesis at 20 uM preincubated for 2 hrs prior to infection followed by compound wash out measured after 48 hrs by flow cytometry relative to control
Type: functional
Details: not given

**Q.** With Oc1ccc(/C=C/c2cc(O)cc(O)c2)cc1 [RESVERATROL] as the compound, how does the Ratio read?
**A.** 1.08

System: Human immunodeficiency virus 1
Assay: Antiviral activity against HIV1 infected in human U373-MAGI cells expressing CXCR4 assessed as frequency of viral mutagenesis at 6 uM preincubated for 2 hrs prior to infection followed by compound wash out measured after 48 hrs by flow cytometry relative to control
Type: functional
Details: not given

**Q.** Which Ratio does the source give for Oc1cc(O)cc(/C=C/c2ccc(O)c(O)c2)c1 [PICEATANNOL] here?
**A.** 1.16

**Q.** Which Ratio does the source give for Oc1ccc(-c2ccc(-c3cc(O)cc(O)c3)cc2)cc1 here?
**A.** 1.1

System: Human immunodeficiency virus 1
Assay: Antiviral activity against HIV1 infected in human U373-MAGI cells expressing CXCR4 assessed as frequency of viral mutagenesis at 30 uM preincubated for 2 hrs prior to infection followed by compound wash out measured after 48 hrs by flow cytometry relative to control
Type: functional
Details: not given

**Q.** For Oc1ccc(-c2sc3ccccc3c2-c2cc(O)cc(O)c2)cc1, which Ratio is on record?
**A.** 1.08
